Laboratory results reported in patent publication US7655665B2, “Nitromethylene derivatives and their use” (East China University of Science and Technology, priority 2004, dated 2010).

Tests used:
[1] = system: Aphis craccivoral; assay: Insecticidal activity against Aphis craccivoral by immersing (dipping aphids on bean sprout); format: in vivo; conditions: for mortality (%) (500 ppm) Aphis: 23° C.
Protocol: (§1) Test on the insecticidal activity of Compound Nos. 1-227
Aphis, which belongs to Homoptera and has a piercing-sucking mouthpart, is a common insect for agricultural plant. Aphis craccivoral was tested by the way of immersing.
Test method: exactly weighed various samples were independently added to N,N-dimethylformamide to form a 10 g/L stock solution. The mixture was diluted with 0.2 mL/L aqueous Triton X-100 solution to a concentration of 500 ug/mL. After stably sucking on bean sprout, the adult aphis without wings together with bean sprout was dipped into 500 ug/mL dilution, taken out after 5 seconds, and the excess dilution was sucked out with bibulous paper and the adult aphis without wings was incubated in clean vessel at a constant temperature of 23° C. Each concentration was repeated for 3 times and the control group contained 0.2 mL/L aqueous Triton X-100 solution. The number of killed aphis was counted after 24 hours to calculate the mortality.

[2] = system: Nilaparvata lugens; assay: Insecticidal activity against Nilaparvata lugens (planthopper) by spraying; format: in vivo; conditions: for mortality (%) (500 ppm) Nilaparvata lugens: spraying 2 ml, counted after 24 hours; for mortality (%) (500 ppm) Nilaparvata-lugens: spraying 2 ml per tumbler, killed counted after 24 hours
Protocol: as §1
Planthopper, which belongs to Homoptera and has a piercing-sucking mouthpart, is a common insect for agricultural plant. Nilaparvata lugens was tested by the way of spraying.
Test method: the test compound was exactly formulated into a solution having a certain concentration and clean water was used as a blank control. Each process was repeated for 3 tumblers (3 times). 2 ml of solution was sprayed uniformly to each tumbler by a mini manual sprayer. 10 Nilaparvata lugens were introduced to every sink 6 hours before spraying. Three series of experiments were conducted. The number of killed Nilaparvata lugens was counted after 24 hours to calculate the mortality.

[3] = 500 ppm, immersing (dipped 5 seconds), counted after 24 hours
[4] = 500 ppm (500 ug/mL dilution), dipped 5 seconds, killed aphis counted after 24 hours

| Compound | mortality (%) (500 ppm) Aphis [1, 3] | mortality (%) (500 ppm) Nilaparvata lugens [2] | further results |
| --- | --- | --- | --- |
| CCC(C)OC1CCC([N+](=O)[O-])=C2N(Cc3ccc(Cl)nc3)CCCN21 (stereo not shown) [Compound 81] | 12 | 8 | – |
| CS(=O)(=O)OC1CCC([N+](=O)[O-])=C2N(Cc3ccc(Cl)nc3)CCN21 (stereo not shown) [Compound 117] | 19 | 65 | – |
| O=C(OC1CCC([N+](=O)[O-])=C2N(Cc3ccc(Cl)nc3)CCN21)c1ccccc1 (stereo not shown) [Compound 122] | 56 | 23 | – |
| CC(C)(OC1CCC([N+](=O)[O-])=C2N(CC3CCOC3)CCN21)C(Cl)(Cl)Cl (stereo not shown) [Compound 57] | 34 | 38 | – |
| COC1CCC([N+](=O)[O-])=C2N(CC3CCOC3)CCN21 (stereo not shown) [Compound 46] | 100 | 100 | – |
| CCCSC1CCC([N+](=O)[O-])=C2N(Cc3ccc(Cl)nc3)CCN21 (stereo not shown) [Compound 136] | 100 | 100 | – |
| CCOC1CCC([N+](=O)[O-])=C2N(Cc3ccc(Cl)nc3)CCN21 (stereo not shown) [Compound 3] | – | – | mortality at 500 ppm ([1]; Aphis, 24 h, read-out: mortality (%) (500 ppm) Aphis): 100%; mortality at 500 ppm ([2]; Nilaparvata lugens, 24 h, read-out: mortality (%) (500 ppm) Nilaparvata lugens): 100% |
| COCCOC1CCC([N+](=O)[O-])=C2N(Cc3ccc(Cl)nc3)CCN21 (racemic) [Compound 21] | 100 | 100 | – |
| CCN=C1CCC([N+](=O)[O-])=C2N(Cc3cnc(Cl)s3)CCCN12 [Compound 222] | – | – | mortality (%) (500 ppm) Aphis [1, 4]: 4%; mortality (%) (500 ppm) Nilaparvata-lugens [2]: 89% |
| CC(C)OC1CCC([N+](=O)[O-])=C2N(Cc3ccc(Cl)nc3)CCCN21 (stereo not shown) [Compound 77] | 56 | 78 | – |
| CCCC(C)N=C1CCC([N+](=O)[O-])=C2N(Cc3ccc(Cl)nc3)CCN12 (stereo not shown) [Compound 197] | – | – | mortality (%) (500 ppm) Aphis [1, 4]: 8%; mortality (%) (500 ppm) Nilaparvata-lugens [2]: 56% |
| CC(C)(C)OC1CCC([N+](=O)[O-])=C2N(Cc3cnc(Cl)s3)CCCN21 (stereo not shown) [Compound 96] | 80 | 100 | – |
| CCCC(C)OC1CCC([N+](=O)[O-])=C2N(Cc3cnc(Cl)s3)CCN21 (mixture of isomers) [Compound 38] | 35 | 67 | – |
| CCCCCN=C1CCC([N+](=O)[O-])=C2N(Cc3cnc(Cl)s3)CCCN12 [Compound 226] | – | – | mortality (%) (500 ppm) Aphis [1, 4]: 22%; mortality (%) (500 ppm) Nilaparvata-lugens [2]: 57% |
| CC(C)CCSC1CCC([N+](=O)[O-])=C2N(Cc3ccc(Cl)nc3)CCN21 (stereo not shown) [Compound 145] | 67 | 78 | – |
| CC(C)OC1CCC([N+](=O)[O-])=C2N(CC3CCOC3)CCCN21 (stereo not shown) [Compound 105] | 10 | 98 | – |
| O=[N+]([O-])C1=C2N(Cc3cnc(Cl)s3)CCN2C(SCC(F)(F)F)CC1 (stereo not shown) [Compound 174] | – | – | mortality (%) (500 ppm) Aphis [1, 4]: 67%; mortality (%) (500 ppm) Nilaparvata-lugens [2]: 100% |
| CS(=O)(=O)OC1CCC([N+](=O)[O-])=C2N(Cc3cnc(Cl)s3)CCN21 (stereo not shown) [Compound 156] | 78 | 92 | – |
| COCCN=C1CCC([N+](=O)[O-])=C2N(Cc3ccc(Cl)nc3)CCN12 [Compound 199] | – | – | mortality (%) (500 ppm) Aphis [1, 4]: 16%; mortality (%) (500 ppm) Nilaparvata-lugens [2]: 36% |
| O=C(OC1CCC([N+](=O)[O-])=C2N(Cc3ccc(Cl)nc3)CCN21)C(F)(F)F (stereo not shown) [Compound 116] | 2 | 45 | – |
